Assay results from the supplement of paper PMC10307832.

What was measured:
Test in all cases: relative viability (nuclei count vs DMSO), 5 days (fraction); higher = more cells survive
Daporinad + Bortezomib = compound: O=C(/C=C/c1cccnc1)NCCCCC1CCN(C(=O)c2ccccc2)CC1 [Daporinad] + CC(C)C[C@H](NC(=O)[C@H](Cc1ccccc1)NC(=O)c1cnccn1)B(O)O [Bortezomib] (partner 0.002 µM)
Method in brief: (§1)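 Medians of duplicate plates are given as relative viability. That measure is the nuclei count in treated wells divided by the count in vehicle wells. Counts were taken on 4× images of lung cancer cell lines in 1536-well plates, 5 days after pin-tool dosing the day after seeding with one drug alone or a fixed anchor-drug dose plus five library-drug doses (not always all listed) in √10 steps.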

Daporinad + Linsitinib = compound: O=C(/C=C/c1cccnc1)NCCCCC1CCN(C(=O)c2ccccc2)CC1 [Daporinad] + C[C@]1(O)C[C@@H](c2nc(-c3ccc4ccc(-c5ccccc5)nc4c3)c3c(N)nccn32)C1 [Linsitinib] (partner 1 µM)
Method in brief: as §1

R406 + Olaparib = compound: COc1cc(Nc2ncc(F)c(Nc3ccc4c(n3)NC(=O)C(C)(C)O4)n2)cc(OC)c1OC [R406] + O=C(c1cc(Cc2n[nH]c(=O)c3ccccc23)ccc1F)N1CCN(C(=O)C2CC2)CC1 [Olaparib] (partner 8 µM)
Method in brief: as §1

R406 + Alpelisib = compound: COc1cc(Nc2ncc(F)c(Nc3ccc4c(n3)NC(=O)C(C)(C)O4)n2)cc(OC)c1OC [R406] + Cc1nc(NC(=O)N2CCC[C@H]2C(N)=O)sc1-c1ccnc(C(C)(C)C(F)(F)F)c1 [Alpelisib] (partner 2 µM)
Method in brief: as §1

| Cell Line | relative viability (Daporinad + Bortezomib; first compound 0.0005 µM) | relative viability (Daporinad + Bortezomib; first compound 0.001581 µM) | relative viability (Daporinad + Bortezomib; first compound 0.005 µM) | relative viability (Daporinad + Bortezomib; first compound 0.01581 µM) | relative viability (Daporinad + Linsitinib; first compound 0.0005 µM) | relative viability (Daporinad + Linsitinib; first compound 0.001581 µM) | relative viability (Daporinad + Linsitinib; first compound 0.005 µM) | relative viability (Daporinad + Linsitinib; first compound 0.01581 µM) | relative viability (R406 + Olaparib; first compound 0.08 µM) | relative viability (R406 + Olaparib; first compound 0.253 µM) | relative viability (R406 + Olaparib; first compound 0.8 µM) | relative viability (R406 + Olaparib; first compound 2.53 µM) | relative viability (R406 + Olaparib; first compound 8 µM) | relative viability (R406 + Alpelisib; first compound 0.08 µM) | relative viability (R406 + Alpelisib; first compound 0.253 µM) | relative viability (R406 + Alpelisib; first compound 0.8 µM) | relative viability (R406 + Alpelisib; first compound 2.53 µM) | relative viability (R406 + Alpelisib; first compound 8 µM) |
| --- | --- | --- | --- | --- | --- | --- | --- | --- | --- | --- | --- | --- | --- | --- | --- | --- | --- | --- |
| H3255 | 0.642 | 0.806 | 0.865 | 0.888 | 0.913 | 0.951 | 1.03 | 1.13 | 0.556 | 0.607 | 0.545 | 0.512 | 0.475 | 0.693 | 0.746 | 0.623 | 0.511 | 0.418 |
| 201T | 1.08 | 1.11 | 1.07 | 1.11 | 0.998 | 0.973 | 1.04 | 1.02 | 0.853 | 0.867 | 0.873 | 0.824 | 0.515 | 1.03 | 1.02 | 1.04 | 0.979 | 0.86 |
| NCI-H2126 | 1.07 | 1.14 | 1.13 | 1.15 | 0.686 | 0.75 | 0.719 | 0.683 | 0.933 | 0.943 | 0.933 | 0.855 | 0.557 | 0.721 | 0.851 | 0.75 | 0.723 | 0.625 |
| HOP-62 |  | 0.84 | 0.962 | 0.26 |  | 0.893 | 1.15 | 0.789 | 0.252 | 0.415 | 0.575 | 0.517 | 0.495 | 0.779 | 1.04 | 0.886 | 1.09 | 0.913 |
| CAL-12T | 0.925 |  | 0.817 | 0.392 | 0.697 | 0.936 | 0.778 | 0.24 | 0.71 | 0.746 | 0.747 | 0.687 | 0.55 | 1.3 | 1.54 | 1.83 | 1.03 | 0.923 |
| NCI-H596 | 1.05 | 1.02 | 0.998 | 0.788 | 1.06 | 1.15 | 1.19 | 0.477 | 0.626 | 0.734 | 0.606 | 0.641 | 0.377 | 0.486 | 0.53 | 0.621 | 0.387 | 0.183 |
| NCI-H1755 | 0.928 | 0.969 | 0.935 | 0.971 | 1.02 | 0.998 | 0.977 | 0.988 | 0.801 | 0.88 | 0.869 | 0.792 | 0.502 | 0.834 | 1.05 | 1.04 | 0.632 | 0.21 |
| NCI-H2023 | 1.01 | 1.1 | 1.04 | 0.972 | 0.764 | 0.723 | 0.768 | 0.686 | 0.437 | 0.49 | 0.474 | 0.4 | 0.163 | 0.541 | 0.572 | 0.685 | 0.409 | 0.474 |
| NCI-H2009 | 0.887 | 1.09 | 1.06 | 0.846 | 1.25 | 1.21 | 1.2 | 0.735 | 0.687 | 0.706 | 0.844 | 0.489 | 0.546 | 1.18 | 1.22 | 1.24 | 1.05 | 1.05 |
